Results reported in patent US12616678B2, “Methods to of aldehyde dehydrogenases for treatment of cancer” (THE PENN STATE RESEARCH FOUNDATION, priority 2020, dated 2026).
Counter-ions that a name gives are not always drawn. Like-named read-outs stand apart in the source and are kept apart here. Each block holds one compound with its values, some of them ahead of it.

Experiments:
ALDH1A1 = target: T1, ALDH1A1 (Homo sapiens, UniProt P00352); test: ALDH isoform-specific enzyme assay, ALDH1A1 (NADH absorbance); assay type: biochemical; details: read-out: IC50s ALDH1A1
T1 construct: purchased R & D Systems, Inc, Minneapolis, MN, USA
T1 sequence (P00352 1-501): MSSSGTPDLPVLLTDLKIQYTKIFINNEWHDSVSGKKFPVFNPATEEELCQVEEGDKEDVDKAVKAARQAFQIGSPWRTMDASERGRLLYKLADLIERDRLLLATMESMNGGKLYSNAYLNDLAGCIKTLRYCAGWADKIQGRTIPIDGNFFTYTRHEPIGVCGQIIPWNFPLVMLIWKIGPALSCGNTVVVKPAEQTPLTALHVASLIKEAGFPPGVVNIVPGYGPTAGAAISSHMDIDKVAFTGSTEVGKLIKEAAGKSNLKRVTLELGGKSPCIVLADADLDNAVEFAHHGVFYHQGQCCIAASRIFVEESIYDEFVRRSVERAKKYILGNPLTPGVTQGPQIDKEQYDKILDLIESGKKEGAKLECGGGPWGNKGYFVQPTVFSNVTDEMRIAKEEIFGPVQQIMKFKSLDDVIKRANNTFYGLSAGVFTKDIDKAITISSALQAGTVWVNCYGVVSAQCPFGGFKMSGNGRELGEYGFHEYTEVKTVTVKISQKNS

ALDH2 = target: T2, ALDH2 (Homo sapiens, UniProt P05091); test: ALDH isoform-specific enzyme assay, ALDH2 (NADH absorbance); assay type: biochemical; details: read-out: IC50s ALDH2
T2 construct: purchased R & D Systems, Inc, Minneapolis, MN, USA
T2 sequence (P05091 18-517): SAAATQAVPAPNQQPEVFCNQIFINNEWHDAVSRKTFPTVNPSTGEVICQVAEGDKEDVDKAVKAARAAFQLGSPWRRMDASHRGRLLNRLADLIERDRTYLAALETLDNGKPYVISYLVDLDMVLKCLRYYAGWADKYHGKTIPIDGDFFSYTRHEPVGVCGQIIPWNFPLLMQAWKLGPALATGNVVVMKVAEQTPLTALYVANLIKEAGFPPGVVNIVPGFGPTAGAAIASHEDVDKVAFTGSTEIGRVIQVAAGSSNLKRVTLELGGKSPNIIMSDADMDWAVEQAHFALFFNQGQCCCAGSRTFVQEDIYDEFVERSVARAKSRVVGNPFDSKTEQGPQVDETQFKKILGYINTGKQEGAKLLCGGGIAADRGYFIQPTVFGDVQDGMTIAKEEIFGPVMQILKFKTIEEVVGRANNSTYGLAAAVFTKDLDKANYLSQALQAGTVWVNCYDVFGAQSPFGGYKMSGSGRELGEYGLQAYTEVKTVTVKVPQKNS

[1] = system: total cellular ALDH activity, UACC 903 cell lysates; test: Total cellular ALDH activity in cell lysates, UACC 903; assay type: cell-based, human; details: 1 uM, 15 minutes, UACC 903 and 1205 Lu cell lysates
Source text: The ALDHs reduce ROS, lipid peroxidation and toxic aldehyde accumulation, the latter of which can lead to cell damage and apoptosis as shown in FIG. 6A. Thus, inhibition of total cellular ALDH activity can increase toxic aldehydes, oxidative damage and apoptosis.

[2] = system: UACC 903 and 1205 Lu cells; test: ROS assay (DCFDA), melanoma cells; assay type: cell-based, human; details: 5 μM, 24 hours, vs DMSO
[3] = system: UACC 903 and 1205 Lu cells; test: Lipid peroxidation (TBARS), melanoma cells; assay type: cell-based, human; details: 5 μM, 24 hours, vs DMSO
Source text: DMSO served as the vehicle control.

[4] = system: Colon cancer cells (HCT116 and HT29); test: MTS cell viability assay, colon cancer cells; assay type: cell-based; details: HCT116 and HT29, 72 hours; read-out: Average IC50s across both colon cancer cell lines
Source text: (§1) Tumour Biol 2017; 39(3):1010428317694565; Rao P C, et al., Cytotoxicity of withasteroids: withametelin induces cell cycle arrest at G2/M phase and mitochondria-mediated apoptosis in non-small cell lung cancer A549 cells. Tumour Biol 2016; 37(9):12579-87; Dinavahi S S, et al., Combined inhibition of PDE4 and PI3Kdelta modulates the inflammatory component involved in the progression of chronic obstructive pulmonary disease. Drug Res (Stuttg) 2014; 64(4):214-9). Briefly, 3,000 cells per well were plated in a 96-well plate and incubated overnight at 37° C. in a 5% CO2 atmosphere. […] 20 μL of MTS reagent was then added into each well and formation of […] was measured by absorbance after 1 hour at 492 nm. IC50 values for each experimental group were measured in 3 independent experiments using GraphPad Prism version 7.04 (GraphPad Software, La Jolla, CA).

[5] = system: multiple myeloma cell lines (NCIH929, U266, RPMI8226, MM.1R); test: MTS cell viability assay, multiple myeloma cells; assay type: cell-based; details: 72 hours, read-out: Average IC50s across all multiple myeloma cell lines tested
Source text: as §1

Swiss-Webster mice = test: Toxicity study, 14 days; assay type: in vivo, mouse; details: 5 mg/kg/day i.p. for 14 days, vs DMSO
Procedure: To determine the toxicity of 3(h-l), compounds were injected i.p. into Swiss-Webster mice once daily for 14 days (Id.). Animals were monitored for changes in body weight, behavior and physical distress compared to DMSO control.

[6] = system: colon cell lines (HCT116, HT29); test: ROS assay (DCFDA) with or without NAC, Study 2; assay type: cell-based
[7] = system: colon cancer cell line, HCT116; test: Cell survival MTS assay with addition of NAC; assay type: cell-based
[8] = system: HCT116 colon cancer cells; test: Apoptosis by Annexin-V/7-AAD, HCT116; assay type: cell-based; design: dose or concentration left out as unconfirmed; details: vs DMSO control or 3a
[9] = system: colon cancer cell line HCT116; test: Cell cycle by propidium iodide staining, HCT116; assay type: cell-based; details: reversed by addition of NAC
[10] = system: HCT116 colon cancer cell line; test: Lipid peroxidation and toxic aldehyde accumulation (TBARS), Study 2
ALDH3A1 = target: T3, ALDH3A1 (Homo sapiens, UniProt P30838); test: ALDH isoform-specific enzyme assay, ALDH3A1 (NADH absorbance); assay type: biochemical
T3 construct: purchased R & D Systems, Inc, Minneapolis, MN, USA
T3 sequence (P30838 1-453): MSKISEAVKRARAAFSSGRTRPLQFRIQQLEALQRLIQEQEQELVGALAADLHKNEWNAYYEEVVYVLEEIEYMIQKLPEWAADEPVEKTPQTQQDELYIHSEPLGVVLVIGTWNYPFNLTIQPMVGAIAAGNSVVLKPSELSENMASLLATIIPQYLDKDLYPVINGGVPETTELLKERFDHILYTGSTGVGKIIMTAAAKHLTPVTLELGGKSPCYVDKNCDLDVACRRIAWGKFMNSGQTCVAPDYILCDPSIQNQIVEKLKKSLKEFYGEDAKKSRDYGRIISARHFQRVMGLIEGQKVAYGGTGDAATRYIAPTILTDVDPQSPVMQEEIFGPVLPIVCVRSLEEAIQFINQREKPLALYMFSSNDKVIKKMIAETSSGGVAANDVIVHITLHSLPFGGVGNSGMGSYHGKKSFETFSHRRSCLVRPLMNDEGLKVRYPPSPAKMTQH

[11] = system: melanoma cells (UACC 903 and 1205 Lu) and normal human fibroblasts (FF2441); test: MTS cell viability assay, all the cell lines evaluated; assay type: cell-based; details: read-out: IC50s in all the cell lines evaluated
Source text: as §1

UACC 903 cells = test: MTS cell viability assay, UACC 903; assay type: cell-based, human; details: 100 μM, 72 hours

IC50 (ALDH1A1): 139 µM
IC50 (ALDH2): 144 µM
SMILES: Cc1nc2ccccc2n1S(=O)(=O)c1ccc(F)cc1 [CB7]

SMILES: CCOC(=O)CSc1nc2c(sc3ccccc32)c(=O)n1CCCN1CCCC1 [CM037]
effect on total cellular ALDH activity [1]: significantly reduced
ROS levels [2]: significantly increased ROS levels
lipid peroxidation and toxic aldehyde accumulation [3]: significantly increased lipid peroxidation and toxic aldehyde accumulation

IC50 [4]: 5.3 µM
IC50 [5]: 1.9 µM
SMILES: Br.N=C(N)SCc1ccc(CN2C(=O)C(=O)c3cc(C(F)(F)F)ccc32)cc1 [Compound 3h, 2-[4-(2,3-Dioxo-5-trifluoromethyl-2,3-dihydroindol-1-ylmethyl)benzyl]isothiourea hydrobromide]
weight loss (Swiss-Webster mice): no significant weight loss
ROS levels ([6]; 5 μM, 24 hours, vs DMSO): significantly increased ROS levels
ROS-inducing activity on addition of N-Acetyl Cysteine (NAC) ([6]; with NAC): abrogated
increase of cell killing IC50 on addition of NAC [7]: 6 fold
percentage of cells both Annexin-V and 7-AAD positive [8]: significantly higher
cell cycle effect [9]: G2/M arrest
lipid peroxidation and toxic aldehyde accumulation ([10]; 5 μM, 24 hours, vs DMSO): significantly increased
lipid peroxidation effect on addition of NAC ([10]; with NAC): abrogated

IC50 [4]: 2.9 µM
IC50 [5]: 1.6 µM
SMILES: N=C(N)SCc1ccc(CN2C(=O)C(=O)c3cc(Cl)cc(Cl)c32)cc1 [Compound 3k, 2-[4-(5,7-Dichloro-2,3-dioxo-2,3-dihydroindol-1-ylmethyl)benzyl]isothiourea hydrobromide]

SMILES: N=C(N)[Se]Cc1ccc(CN2C(=O)C(=O)c3cc(Br)ccc32)cc1 [Compound 4b, 2-[4-(5-Bromo-2,3-dioxo-2,3-dihydroindol-1-ylmethyl)benzyl]isoselenourea hydrobromide]
inhibition at 0.5 µM (ALDH3A1; read-out: % inhibition of ALDH3A1): ≥ 60%

SMILES: O=C1C(=O)N(Cc2ccccc2)c2ccccc21 [Cpd 3]
IC50 [11]: > 100 µM

SMILES: CCN(CC)c1ccc(C=O)cc1 [DEAB]
IC50 (ALDH3A1; as rounded in text, read-out: IC50 ALDH3A1): 15.1 µM
IC50 (ALDH3A1; read-out: IC50s ALDH3A1): 15.1 µM
reduction of UACC 903 cell survival (UACC 903 cells): 30%
effect on total cellular ALDH activity [1]: significantly reduced
ROS levels [2]: significantly increased ROS levels
lipid peroxidation and toxic aldehyde accumulation [3]: significantly increased lipid peroxidation and toxic aldehyde accumulation

SMILES: O=C1Nc2ccccc2C1=O [Isatin]
effect on total cellular ALDH activity [1]: ineffective
